From US10786542B2 (priority 2016, dated 2020)
Where two headings read alike, the source gives them in different places.

Columns and labels:
HEK control cells = assay: cells; assay type: cell-based; details: Homo sapiens
A549 cells = assay: cells; assay type: cell-based; details: for IC50: Homo sapiens
in vitro = details: human, IC50 etoposide-induced growth inhibition
MRP1 = MRP1 (Homo sapiens, UniProt P33527); assay: cell-based
[1] = A549, read-out: IC50 growth inhibition, co-treatment with 10 nM HN2
[2] = A549, read-out: IC50 growth inhibition, drug alone

Sequence of MRP1 (P33527 whole entry): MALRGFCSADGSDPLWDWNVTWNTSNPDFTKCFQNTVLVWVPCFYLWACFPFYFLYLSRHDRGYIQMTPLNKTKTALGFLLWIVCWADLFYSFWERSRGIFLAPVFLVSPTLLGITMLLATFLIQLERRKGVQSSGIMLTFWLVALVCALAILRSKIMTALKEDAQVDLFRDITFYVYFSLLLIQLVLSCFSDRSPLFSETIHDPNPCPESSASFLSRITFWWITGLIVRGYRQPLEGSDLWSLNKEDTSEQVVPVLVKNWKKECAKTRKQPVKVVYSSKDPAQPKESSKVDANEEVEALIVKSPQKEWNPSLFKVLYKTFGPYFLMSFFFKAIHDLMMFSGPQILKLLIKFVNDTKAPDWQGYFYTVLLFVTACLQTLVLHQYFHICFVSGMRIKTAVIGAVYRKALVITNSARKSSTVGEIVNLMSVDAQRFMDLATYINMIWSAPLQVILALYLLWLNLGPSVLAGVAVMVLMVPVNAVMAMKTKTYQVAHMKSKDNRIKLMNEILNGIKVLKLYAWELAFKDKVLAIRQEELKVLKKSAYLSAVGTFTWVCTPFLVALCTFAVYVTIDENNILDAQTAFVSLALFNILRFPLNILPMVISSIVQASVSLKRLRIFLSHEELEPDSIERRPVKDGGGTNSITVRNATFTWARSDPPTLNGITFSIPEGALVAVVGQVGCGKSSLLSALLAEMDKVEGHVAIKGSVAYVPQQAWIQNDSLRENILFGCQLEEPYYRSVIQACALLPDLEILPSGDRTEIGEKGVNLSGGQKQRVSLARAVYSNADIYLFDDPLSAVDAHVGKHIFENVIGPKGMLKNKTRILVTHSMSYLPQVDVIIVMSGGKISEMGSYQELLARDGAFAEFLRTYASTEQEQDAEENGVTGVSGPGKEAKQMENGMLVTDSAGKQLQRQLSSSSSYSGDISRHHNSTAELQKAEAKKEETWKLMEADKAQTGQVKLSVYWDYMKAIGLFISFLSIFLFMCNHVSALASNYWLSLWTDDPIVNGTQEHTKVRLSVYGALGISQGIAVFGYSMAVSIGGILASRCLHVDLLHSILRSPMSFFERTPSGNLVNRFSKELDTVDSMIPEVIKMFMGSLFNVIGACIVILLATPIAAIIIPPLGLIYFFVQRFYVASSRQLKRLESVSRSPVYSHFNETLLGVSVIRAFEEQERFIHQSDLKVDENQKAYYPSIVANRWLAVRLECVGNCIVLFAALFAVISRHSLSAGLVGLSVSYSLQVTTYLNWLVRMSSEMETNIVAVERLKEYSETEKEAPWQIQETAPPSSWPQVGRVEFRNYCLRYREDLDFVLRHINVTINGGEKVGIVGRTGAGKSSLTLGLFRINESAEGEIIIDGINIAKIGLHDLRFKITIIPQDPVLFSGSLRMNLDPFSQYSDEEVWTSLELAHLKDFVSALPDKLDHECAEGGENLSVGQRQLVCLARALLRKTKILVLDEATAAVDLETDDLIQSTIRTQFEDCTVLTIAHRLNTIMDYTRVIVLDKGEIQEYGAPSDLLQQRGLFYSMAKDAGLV

Row | Structure (SMILES) | IC50 (A549 cells; [1]) | IC50 (A549 cells; [2]) | other results
1 | COc1cc([C@@H]2c3cc4c(cc3[C@@H](O[C@@H]3O[C@@H]5CO[C@@H](C)O[C@H]5[C@H](O)[C@H]3O)[C@H]3COC(=O)[C@H]23)OCO4)cc(OC)c1O [etoposide] | 75 nM | 1000 nM | IC50 (HEK control cells; read-out: IC50 etoposide-induced growth inhibition, co-treatment with 3 nM HN2): 47 nM; IC50 (HEK control cells; read-out: IC50 etoposide-induced growth inhibition, etoposide alone): 55 nM; IC50 (in vitro; co-treated with 10 nM HN2): 42 nM; IC50 (in vitro; etoposide alone): 960 nM
2 | CC[C@]1(O)C[C@H]2CN(CCc3c([nH]c4ccccc34)[C@@](C(=O)OC)(c3cc4c(cc3OC)N(C=O)[C@H]3[C@@](O)(C(=O)OC)[C@H](OC(C)=O)[C@]5(CC)C=CCN6CC[C@]43[C@@H]65)C2)C1 [Vincristine, vincristine] | 45 nM | 360 nM | –
3 | CCOC(=O)C#CC(=O)OCC [diethyl acetylenedicarboxylate] | – | – | IC50 (MRP1): 6 nM
4 | CN(C)C(=O)CCSC(SCCC(=O)O)c1cccc(/C=C/c2ccc3ccc(Cl)cc3n2)c1 (stereo not drawn) [MK-571] | – | – | Increase in sensitivity to MRP1 substrate drugs (A549 cells): six-fold
5 | CN(Cc1cnc2nc(N)nc(N)c2n1)c1ccc(C(=O)N[C@@H](CCC(=O)O)C(=O)O)cc1 [Methotrexate, methotrexate] | 48 nM | 230 nM | –
